Measured values published in publication PMC12056086 (Nature Communications, 2025).

Columns and labels:
[1] = biological target: human dopamine transporter (hDAT) (Homo sapiens, UniProt Q01959); experiment: cell-based; details: read-out: single-molecule AFM force spectroscopy on live cells
[2] = biological target: human dopamine transporter (hDAT) (Homo sapiens, UniProt Q01959, G386H)
[3] = biological target: human dopamine transporter (hDAT) (Homo sapiens, UniProt Q01959, V152I)
[4] = biological target: human dopamine transporter (hDAT) (Homo sapiens, UniProt Q01959, K92A)
[5] = biological target: human dopamine transporter (hDAT) (Homo sapiens, UniProt Q01959, K384A)
Chain of human dopamine transporter (hDAT) (Homo sapiens, UniProt Q01959, K384A) (Q01959 whole entry K384A): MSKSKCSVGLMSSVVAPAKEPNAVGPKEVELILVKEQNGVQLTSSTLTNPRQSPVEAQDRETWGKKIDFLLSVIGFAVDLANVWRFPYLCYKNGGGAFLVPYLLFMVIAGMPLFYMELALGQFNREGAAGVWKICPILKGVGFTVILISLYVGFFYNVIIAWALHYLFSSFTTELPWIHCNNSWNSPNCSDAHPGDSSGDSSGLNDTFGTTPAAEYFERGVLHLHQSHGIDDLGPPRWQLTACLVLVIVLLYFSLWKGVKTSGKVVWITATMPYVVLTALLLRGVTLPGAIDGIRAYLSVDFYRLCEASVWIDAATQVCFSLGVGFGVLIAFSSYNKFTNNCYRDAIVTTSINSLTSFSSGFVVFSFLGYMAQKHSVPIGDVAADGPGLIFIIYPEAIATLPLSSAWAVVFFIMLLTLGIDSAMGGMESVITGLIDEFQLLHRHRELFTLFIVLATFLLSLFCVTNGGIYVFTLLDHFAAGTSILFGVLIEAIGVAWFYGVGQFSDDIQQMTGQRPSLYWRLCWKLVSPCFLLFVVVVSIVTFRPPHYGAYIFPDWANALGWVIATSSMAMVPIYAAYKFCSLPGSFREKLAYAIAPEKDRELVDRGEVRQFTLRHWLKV

Chain of human dopamine transporter (hDAT) (Homo sapiens, UniProt Q01959, K92A) (Q01959 whole entry K92A): as the sequence (Q01959 whole entry K384A) above, with K92A, A384K counted along it
Chain of human dopamine transporter (hDAT) (Homo sapiens, UniProt Q01959, G386H) (Q01959 whole entry G386H): as the sequence (Q01959 whole entry K384A) above, with A384K, G386H counted along it
Chain of human dopamine transporter (hDAT) (Homo sapiens, UniProt Q01959, V152I) (Q01959 whole entry V152I): as the sequence (Q01959 whole entry K384A) above, with V152I, A384K counted along it
Chain of human dopamine transporter (hDAT) (Homo sapiens, UniProt Q01959) (Q01959 whole entry): as the sequence (Q01959 whole entry K384A) above, with A384K counted along it

Structure (SMILES): NCCc1ccc(O)c(O)c1 [dopamine]
- koff [1]: 0.11 ± 0.03 s⁻¹
- single-molecule AFM force spectroscopy on live cells [2]: dopamine was still able to bind to the S2 site of DAT-G386H, albeit with lower binding strength
- single-molecule AFM force spectroscopy on live cells [3]: (V152I) also reduced the population of stronger binding events (d) while the overall binding activity is preserved
- single-molecule AFM force spectroscopy on live cells [4]: both K92A and K384A diminished the population of weaker unbinding events, indicating that both lysines are involved in the S2 site
- single-molecule AFM force spectroscopy on live cells [5]: both K92A and K384A diminished the population of weaker unbinding events, indicating that both lysines are involved in the S2 site
